Results: article PMC7710018, “Restoration of motor learning in a mouse model of Rett syndrome following long-term treatment with a novel small-molecule activator of TrkB” (Disease Models & Mechanisms, 2020)
≈ marks a conversion by molar mass, not a printed value. Entries after “also recorded” stand apart in the source; their conditions may differ.

How the values were obtained:
[1] = molecular target: T1, hERG channels (Homo sapiens, UniProt Q12809); experiment: hERG testing (Cerep); assay type: cell-based; conditions: 0.1, 1 and 10 µM; >50% inhibition of the tail current = significant
T1 construct: Cerep, Inc. (contract screen)
Description: (§1) To evaluate the relative binding specificity of LM22A-4 ([Massa et al., 2010]) and PTX-BD4-3, binding to a broad range of 55 pharmacologically relevant receptors, including numerous neurotransmitter and G-protein coupled receptors was assessed using standard radioligand competition binding assays (ExpressSProfile) performed by Cerep, Inc. (Seattle, WA, USA). In addition, ADME-Tox analysis was performed by Cerep, Inc. All experimental conditions are described on the Cerep website (www.cerep.fr).
(§2) Aqueous Human CYP inhibition (10µM) AMES hERG solubility hepatocyte DNA testing
(§3) (µM) metabolic mutagenesis
(§4) PTX‐BD4‐3 200 >60 negative negative negative
(§5) Table S2. Solubility, metabolism and toxicity screens for LM22A-4 and PTX-BD4-3. Standardized assays of solubility, metabolic stability and in vitro toxicity were performed to further evaluate the potential of PTX-BD4-3 as a lead candidate molecule for the treatment of Rett syndrome, and to compare its profile to that of the parent compound LM22A-4. Aqueous solubility of both compounds, which is used as a surrogate measure of absorption, was at or near the assay maximum of 200 µM. The metabolic stability of both compounds at 10 µM was evaluated at 5 different time points in […] and found to be >60 min, indicating favorable stability. […]

[2] = Metabolic stability (Cerep); assay type: in vitro ADME, human; conditions: 10 µM, 5 time points
Description: as §1, §2, §3, §4
(§6) Table S2. Solubility, metabolism and toxicity screens for LM22A-4 […]
(§7) and PTX-BD4-3. […]
(§8) (also on this page, place not known: Disease Models & Mechanisms: doi:10.1242/dmm.044685: Supplementary information Disease Models & Mechanisms • Supplementary information)

[3] = test system: TrkB; experiment: Shc adaptor protein recruitment to TrkB in HCEMs (IP/western blot); assay type: cell-based, human; conditions: 1 h, compounds 1000 nM, BDNF 0.7 nM
Description: Fig. 2. […] Scale bar: 10 μm. […] Scale bar: 10 μm.

[4] = Aqueous solubility (Cerep); assay type: physicochemical; conditions: assay maximum 200 µM
Description: as §1, §2, §3, §4, §5

[5] = test system: E16 mouse hippocampal neurons; experiment: Hippocampal neuron survival (ViaLight assay and Tuj1-positive cell counts); assay type: cell-based; conditions: for neurotrophic activity in the presence of function-blocking anti-TrkB^ECD antibody: compounds 1000 nM, BDNF 20 ng/ml, vs control antibody
Description: To further confirm that PTX-BD4-3 promotes biologically relevant activity through TrkB, we examined the effect of PTX-BD4-3 on survival of cultured hippocampal neurons, using two different methods (Fig. 3A-C). […] It would be expected that although there is a correlation between survival status and mitochondrial metabolic status, one could have some degree of variability in metabolic function for a given level of cell survival. […] Because the plateau effect of PTX-BD4-3 on survival was observed between 500 nM and 1000 nM, we chose 1000 nM as a standard concentration for subsequent mechanistic studies.
Fig. 3. […] (A) Fluorescence photomicrographs (original magnification, ×40) of Tuj1-immunostained E16 mouse hippocampal neuronal cultures treated with culture medium (CM) alone, BDNF, LM22A-4 or PTX-BD4-3 for 48 h. Scale bar: 10 μm. (B) Neuron survival dose-response curves for LM22A-4 and PTX-BD4-3 were generated using the ViaLight assay; data were normalized to survival achieved with 20 ng/ml (∼0.7 nM) BDNF and compared with wells receiving culture medium medium (CM) alone. n=10-32 wells per group derived from four to five independent experiments. (C) Survival analysis of hippocampal neurons treated with either 20 ng/ml BDNF, 500 nM or 1000 nM LM22A-4 or 500 nM or 1000 nM PTX-BD4-3 for 48 h. Tuj1-positive cells counts were normalized to the survival achieved with BDNF and compared with wells treated with […]. n=32-40 wells per group derived from six independent experiments. Statistical significance in B and C was determined by one-way ANOVA with Dunnett's post hoc multiple comparison tests. *P≤0.05, ^§P≤0.001 compared to control (CM). (D) Survival of hippocampal neurons treated with CM, 20ng/ml BDNF (B), 1000 nM LM22A-4 or 1000 nM PTX-BD4-3 with or without anti-TrkB antibody (Bab) or non-immune serum (non). n=37-42 wells per group derived from five independent experiments. *P≤0.05, **P≤0.01, ***P≤0.001 (non vs Bab), Mann-Whitney test; *P≤0.05, ^ψP≤0.01, ^§P≤0.001 (compared to CM), one-way ANOVA with Dunnett's post hoc multiple comparison test.
Hippocampal neuron cultures were prepared from E16 CF1 mouse fetuses as described previously ([Yang et al., 2006]). Under the low-density conditions used here, neuronal survival is dependent, in part, on addition of exogenous neurotrophins ([Yang et al., 2008]; [Walter et al., 2011]). LM22A-4 and PTX-BD4-3 were dissolved in water at a stock concentration of 10 mM prior to dilution (1:10,000) in culture medium. Cell survival following a 48-h exposure to BDNF, LM22A-4 or PTX-BD4-3 was quantified by either counting β-tubulin III-positive cell bodies ([Massa et al., 2006]; [Walter et al., 2011]) or by the ViaLight Assay described above.

[6] = test system: 8 different CYP enzymes; experiment: CYP inhibition (Cerep); assay type: in vitro ADME; conditions: 10µM
Description: as §1, §2, §3, §4, §6, §7
Both compounds were negative in 3 different assays of in vitro toxicity; inhibition of 8 different CYP enzymes at 10 µM, DNA mutagenesis in 4 different strains of Salmonella typhimurium at 5, 10, 50 and 100 µM and cardiac toxicity, measured by […] of hERG channels at 0.1, 1 and 10 µM, where >50% inhibition of the tail current indicates significant cardiac toxicity.
as §8

T1 sequence (Q12809 whole entry): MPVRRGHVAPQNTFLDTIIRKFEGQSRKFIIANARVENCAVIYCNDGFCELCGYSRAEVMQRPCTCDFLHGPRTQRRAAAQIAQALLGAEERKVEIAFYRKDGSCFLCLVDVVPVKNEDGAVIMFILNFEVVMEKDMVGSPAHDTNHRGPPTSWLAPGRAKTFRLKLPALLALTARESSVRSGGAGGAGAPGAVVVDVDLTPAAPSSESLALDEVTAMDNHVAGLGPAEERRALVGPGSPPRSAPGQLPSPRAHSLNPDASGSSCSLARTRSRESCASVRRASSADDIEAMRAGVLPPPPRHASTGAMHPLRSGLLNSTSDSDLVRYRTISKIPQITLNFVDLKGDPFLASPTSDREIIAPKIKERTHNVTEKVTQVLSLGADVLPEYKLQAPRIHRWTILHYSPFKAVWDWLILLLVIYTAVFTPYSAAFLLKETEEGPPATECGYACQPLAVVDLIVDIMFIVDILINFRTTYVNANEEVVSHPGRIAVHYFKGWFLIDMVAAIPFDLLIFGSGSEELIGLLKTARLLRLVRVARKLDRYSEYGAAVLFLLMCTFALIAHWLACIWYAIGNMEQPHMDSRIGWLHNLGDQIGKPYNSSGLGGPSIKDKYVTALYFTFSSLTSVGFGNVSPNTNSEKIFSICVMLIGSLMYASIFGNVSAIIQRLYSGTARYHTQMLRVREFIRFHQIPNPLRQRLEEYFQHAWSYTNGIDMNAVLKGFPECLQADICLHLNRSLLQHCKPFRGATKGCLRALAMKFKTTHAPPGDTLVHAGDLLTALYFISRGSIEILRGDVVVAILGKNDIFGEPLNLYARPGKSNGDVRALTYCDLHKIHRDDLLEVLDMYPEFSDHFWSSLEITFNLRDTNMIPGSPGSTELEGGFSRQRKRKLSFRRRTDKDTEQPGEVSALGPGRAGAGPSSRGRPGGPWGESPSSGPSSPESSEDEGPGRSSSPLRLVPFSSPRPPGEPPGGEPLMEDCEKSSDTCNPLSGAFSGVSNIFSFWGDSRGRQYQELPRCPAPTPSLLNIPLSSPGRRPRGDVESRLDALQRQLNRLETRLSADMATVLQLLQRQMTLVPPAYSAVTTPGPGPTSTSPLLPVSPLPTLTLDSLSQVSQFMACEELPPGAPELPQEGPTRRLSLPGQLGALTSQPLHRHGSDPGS

Row | SMILES | hERG testing (cardiac toxicity) [1] | Human hepatocyte metabolic stability [2] | Shc recruitment to TrkB (ratio of Shc to TrkB) [3] | solubility [4] | neurotrophic activity in the presence of function-blocking anti-TrkB^ECD antibody [5] | CYP inhibition [6] | maximum levels of neurotrophic activity ([5]; 48 h, ViaLight and Tuj1 counts, normalized to 20 ng/ml BDNF) | EC50 ([5]; Mus musculus, Hippocampal neuron, 48 h, ViaLight and Tuj1 counts, read-out: half-maximal effective concentration (EC50), neurotrophic activity)
1 | O=C(NCCO)c1cc(C(=O)NCCO)cc(C(=O)NCCO)c1 [LM22A-4, N,N′,N′′-tris(2-hydroxyethyl)-1,3,5-benzenetricarboxamide, reference compound] | negative | > 60 min | promoted Shc recruitment to TrkB | 180 µM (≈ 61.2 µg/mL) | reduction | negative |  | 
2 | COCCN(C)C(=O)c1cc(C(=O)N(C)CCOC)cc(C(=O)N(C)CCOC)c1 [PTX-BD4-3, benzene-1,3,5-tricarboxylic acid tris-[(2-methoxy-ethyl)-methyl-amide]] | negative; also recorded: no activity | > 60 min | promoted Shc recruitment to TrkB | 200 µM (≈ 84.7 µg/mL) | reduction | negative | 80-100 % of that of BDNF | 300 to 500 nM
